Data set [1] has as its target T1, 5-HT2A receptor (Homo sapiens, UniProt P28223). Description: Binding to the 5-HT2A receptor, Method (c), [125I]-DOI. Further details: expressed in transfected cells; host or cells: CHO cell line. On the procedure: (§1) The binding of compounds of formula (I) to serotonin receptors was determined in vitro by standard methods. The preparations were investigated in accordance with the assays given hereinafter.
Method (c): For the binding to the 5-HT2A receptor the 5-HT2A receptors were radiolabeled with [^125I]-DOI. The affinity of the compounds for 5-HT2A receptors in a CHO cell line was determined according to the procedure of D. J. McKenna and S. J. Peroutka, J. Neurosci., 1989, 9, 3482-90.
(§2) The Ki values are calculated according to the method of Cheng, Yung-Chi, and Prusoff, W. H. Biochem. Pharmacol. 1973, 22(23) 3099-108.

Data set [2] addresses T2, human 5-HT2B receptors (Homo sapiens, UniProt P41595).
T2 construct: expressed in transfected cells; host or cells: CHO cell line
Nature of the data set: Binding to the 5-HT2B receptor, Method (b), [3H]-5-HT. On the procedure: as §1
Method (b): For the binding to the 5-HT2B receptor the 5-HT2B receptors were radiolabeled with [^3H]-5-HT. The affinity of the compounds for human 5-HT2B receptors in a CHO cell line was determined according to the procedure of K. Schmuck, C. Ullmer, P. Engels and H. Lubbert, FEBS Lett., 1994, 342, 85-90.
as §2

Data set [3] has as its target T3, 5-HT2C receptor (Homo sapiens, UniProt P28335).
T3 sequence (P28335 33-458): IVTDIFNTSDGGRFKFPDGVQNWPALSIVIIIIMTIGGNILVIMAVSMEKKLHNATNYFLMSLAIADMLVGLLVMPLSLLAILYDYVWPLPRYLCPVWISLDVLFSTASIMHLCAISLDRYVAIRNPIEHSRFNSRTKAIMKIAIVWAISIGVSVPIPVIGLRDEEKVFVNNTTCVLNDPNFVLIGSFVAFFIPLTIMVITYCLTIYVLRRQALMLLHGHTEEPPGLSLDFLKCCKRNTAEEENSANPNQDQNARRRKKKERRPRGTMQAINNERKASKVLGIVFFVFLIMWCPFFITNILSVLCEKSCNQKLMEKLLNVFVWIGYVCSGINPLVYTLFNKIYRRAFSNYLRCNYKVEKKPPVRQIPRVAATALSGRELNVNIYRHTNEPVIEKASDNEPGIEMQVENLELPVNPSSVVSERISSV
Nature of the data set: Binding to the 5-HT2C receptor, Method (a), [3H]-5-HT. Further details: expressed in transfected cells; host or cells: CHO cell line. Here is the method:
as §1
Method (a): For the binding to the 5-HT2C receptor the 5-HT2C receptors were radiolabeled with [^3H]-5-HT. The affinity of the compounds for 5-HT2C receptors in a CHO cell line was determined according to the procedure of D. Hoyer, G. Engel and H. O. Kalkman, European J. Pharmacol., 1985, 118, 13-23.
as §2

A short description of data set [4]: Pharmacodynamic study: food intake up to 16 hours after compound administration. The format is in vivo, rats. Particulars: 30 mg/kg p.o. On the procedure:
The in vivo activity of compounds of formula (I) was assayed for ability to regulate feeding behaviour during a time period up to 16 hours after compound administration.
The test compound was assessed following acute administration. Each study utilised a between-subjects design (typically n=8) and compared the effects of a single dose of the test agent to those of vehicle.
Example 1 was administered at a dose of 30 mg/kg p.o. in a distilled water vehicle 2, 4, 8, or 16 hours prior to food presentation. At the time of food presentation (standard laboratory chow) all animals had been subjected to a 23-hour food deprivation period. Water was freely available throughout the study. The amount of food consumed over 1 hour was determined. Food intake data were subjected to two-way analysis of variance (ANOVA) with drug treatment as a between-subjects factor and injection-test-interval as a between subjects factor. Newman-Keuls tests were performed to assess whether differences between the vehicle mean and the drug-treated mean at each level of injection-test-interval were significant. All statistical analyses were performed using Statistica Software, Version 5.0 (Statsoft Inc.) and Microsoft Excel 7.0 (Microsoft Corp.).

The target of data set [5] is T1, 5-HT2A receptor. Nature of the data set: Functional activity, FLIPR calcium assay, CHO cells expressing human 5-HT2A. The format is cell-based. More on the design: expressed in transfected cells; host or cells: CHO cells. On the procedure: (§3) The functional activity of compounds of formula (I) was assayed using a Fluorimetric Imaging Plate reader (FLIPR). CHO cells expressing the human 5-HT2C or human 5-HT2A receptors were counted and plated into standard 96 well microtitre plates on the day before testing to give a confluent monolayer. The cells were then dye loaded with the calcium sensitive dye, Fluo-3-AM. Unincorporated dye was removed using an automated cell washer to leave a total volume of 100 μL/well of assay buffer (Hanks balanced salt solution containing 20 mM Hepes and 2.5 mM probenecid). The drug (dissolved in 50 μL of the assay buffer) was added at a rate of 70 μL/sec to each well of the FLIPR 96 well plate during fluorescence measurements. The measurements were taken at 1 sec intervals and the maximum fluorescent signal was measured (approx 10-15 secs after drug addition) and compared with the response produced by 10 μM 5-HT (defined as 100%) to which it was expressed as a percentage response (relative efficacy). Dose response curves were constructed using Graphpad Prism (Graph Software Inc.).

Data set [6] has as its target T3, 5-HT2C receptor. Nature of the data set: Functional activity, FLIPR calcium assay, CHO cells expressing human 5-HT2C. The format is cell-based. More on the design: expressed in transfected cells; host or cells: CHO cells. Conditions: for h5-HT2c Relative Efficacy: relative to response of 10 μM 5-HT (100%). Here is the method: as §3
For data set [7] the following is noted: literature; cited from earlier work.
The conditions of data set [8]: literature, cited from earlier work.

Where two headings read alike, the source gives them in different places. Bounds are passed on as bounds.

T1 sequence (P28223 whole entry): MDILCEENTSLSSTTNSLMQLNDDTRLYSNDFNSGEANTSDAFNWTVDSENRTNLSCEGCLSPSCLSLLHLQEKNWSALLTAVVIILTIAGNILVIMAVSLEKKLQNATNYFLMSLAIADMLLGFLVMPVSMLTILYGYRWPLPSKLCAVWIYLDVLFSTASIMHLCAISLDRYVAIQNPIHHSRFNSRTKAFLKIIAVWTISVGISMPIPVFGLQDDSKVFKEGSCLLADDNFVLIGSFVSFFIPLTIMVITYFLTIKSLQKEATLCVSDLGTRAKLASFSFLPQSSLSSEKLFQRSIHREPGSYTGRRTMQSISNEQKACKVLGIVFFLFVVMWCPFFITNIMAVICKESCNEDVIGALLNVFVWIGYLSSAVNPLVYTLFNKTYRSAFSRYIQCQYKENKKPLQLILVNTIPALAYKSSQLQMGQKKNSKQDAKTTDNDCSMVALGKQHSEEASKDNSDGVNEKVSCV
T2 sequence (P41595 whole entry): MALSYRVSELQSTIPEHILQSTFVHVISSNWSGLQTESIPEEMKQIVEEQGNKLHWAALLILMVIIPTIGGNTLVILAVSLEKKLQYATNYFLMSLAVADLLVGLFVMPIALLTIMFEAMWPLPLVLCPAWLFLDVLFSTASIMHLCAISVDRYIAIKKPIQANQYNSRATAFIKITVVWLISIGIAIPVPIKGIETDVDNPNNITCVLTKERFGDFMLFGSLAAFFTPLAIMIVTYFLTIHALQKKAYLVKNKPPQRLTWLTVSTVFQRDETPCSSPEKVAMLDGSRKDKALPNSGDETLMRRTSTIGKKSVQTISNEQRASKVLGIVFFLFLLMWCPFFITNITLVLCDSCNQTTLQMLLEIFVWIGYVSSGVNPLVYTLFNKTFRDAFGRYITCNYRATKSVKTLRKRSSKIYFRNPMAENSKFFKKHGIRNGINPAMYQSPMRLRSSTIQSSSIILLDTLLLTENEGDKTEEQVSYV

One may read the Ki as a measure of affinity in units of concentration, obtained from inhibition or displacement. Consider `CCOc1ccc2c(c1)c(C[C@H](C)N)c1n2CCC1` [Example 1, (S)-2-(6-ethoxy-2,3-dihydro-1H-3a-aza-cyclopenta[a]inden-8-yl)-1-methyl-ethylamine], for which the Ki worked out at 0.41 µM in data set [1]; 0.83 µM in data set [2]; 0.011 µM in data set [3] (Method (a), [3H]-5-HT, CHO cell line, Ki by Cheng-Prusoff, read-out: Ki (2C)). Moreover, the “duration of action in reducing rat food intake” value in data set [4] is given as “at least 16 hours”. Also, the “h5-HT2A Relative Efficacy” value in [5] (relative to response of 10 μM 5-HT (100%)) came out at 33%. Besides, in data set [6], the “h5-HT2c Relative Efficacy” value turned out to be 87%.

The EC50 is the concentration giving half of the maximal effect. Turning to `C[C@H](N)Cc1c2n(c3ccc(OC4CC4)cc13)CCC2` [Example 3, (S)-2-(6-cyclopropoxy-2,3-dihydro-1H-3a-aza-cyclopenta[a]inden-8-yl)-1-methyl-ethylamine], the EC50 in data set [5] (FLIPR, CHO cells, read-out: h5-HT2A EC50) was over 1 µM; in [6] (FLIPR, CHO cells, read-out: h5-HT2c EC50), 0.003 µM. The “h5-HT2c Relative Efficacy” value in [6] worked out at 84%.

In general, melting point refers to the temperature of the solid-liquid transition. For `COCCCCOc1ccc2c(c1)c(C[C@H](C)N)c1n2CCC1.Cl`, the melting point came out at 107 °C.

In turn, `CCOCCOc1ccc2c(c1)c(C[C@H](C)N)c1n2CCC1.Cl` gave a melting point of 170 to 172 °C.

For the compound `COCCOc1ccc2c(c1)c(C[C@H](C)N)c1n2CCC1` [Example 2, (S)-2-[6-(2-methoxy-ethoxy)-2,3-dihydro-1H-3a-aza-cyclopenta[a]inden-8-yl]-1-methyl-ethyl amine], the Ki is 0.52 µM in [1] (Method (c), [125I]-DOI, CHO cell line, Ki by Cheng-Prusoff, read-out: Ki (2A)); 0.48 µM in data set [2] (Method (b), [3H]-5-HT, human 5-HT2B in CHO cell line, Ki by Cheng-Prusoff, read-out: Ki (2B)); 0.019 µM in data set [3].

On to `CCOCCCOc1ccc2c(c1)c(C[C@H](C)N)c1n2CCC1.Cl`, for which the melting point came out at 132 °C.

`Clc1cccc(N2CCNCC2)c1` [mCPP, m-chlorophenylpiperazine]: in data set [7], the behavioural satiety sequence result is on record as “accelerate the appearance of the behavioural satiety sequence” and the “food intake in rats” value was “reduce food intake”. Moreover, the “food intake in female volunteers” value in [8] (single dose) is reported as “decreased food intake”. In addition, the “appetite and body weight of obese male and female subjects” value in data set [8] (subchronic treatment for a 14 day period) is “decreased the appetite and body weight”.

Values taken from patent publication US6610685B2, “Fused indole derivatives” (Hoffmann-La Roche Inc., priority 2000, dated 2003).
